Source: PubChem BioAssay AID256 (DTP/NCI, 2004)
Toxic doses and inconclusive results are not listed. The calls were made as follows: active = survival T/C of 150% or more; inactive = T/C below 125% in these data.

Tested on: CD2F1 mice, L1210 leukemia ip, survival T/C
Experiment: NCI In Vivo Anticancer Drug Screen. Data for tumor model L1210 Leukemia (intraperitoneal) in CD2F1 (CDF1) mice
Conditions: endpoint: mean survival time, higher = longer survival
Summary of the method: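 Read-out first: treated-group measurement over vehicle-control measurement, expressed as a ratio. Animals bore a transplanted tumor line and were dosed with compound or vehicle.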

[1] = dose: 50.0 mg/kg/injection, schedule: Q01DX009 (ip), vehicle: saline
[2] = dose: 100.0 mg/kg/injection, schedule: Q01DX009 (ip), vehicle: saline
[3] = dose: 200.0 mg/kg/injection, schedule: Q01DX009 (ip), vehicle: saline
[4] = dose: 100.0 mg/kg/injection, schedule: Q04DX003 (ip), vehicle: saline with Tween-80
[5] = dose: 200.0 mg/kg/injection, schedule: Q04DX003 (ip), vehicle: saline with Tween-80
[6] = dose: 400.0 mg/kg/injection, schedule: Q04DX003 (ip), vehicle: saline with Tween-80

Measured: T/C

C[C@]12C=CC(=O)C=C1CC[C@@H]1[C@@H]2C(=O)C[C@@]2(C)[C@H]1CC[C@]2(O)C(=O)CO
inactive: dose: 6.25 mg/kg/injection, schedule: Q03HX008 (ip), vehicle: saline 98 % of control | dose: 6.25 mg/kg/injection, schedule: Q03HX016 (ip), vehicle: saline 97 % of control | dose: 6.25 mg/kg/injection, schedule: Q03HX024 (ip), vehicle: saline 100 % of control | dose: 12.5 mg/kg/injection, schedule: Q03HX008 (ip), vehicle: saline 98 % of control | dose: 12.5 mg/kg/injection, schedule: Q03HX016 (ip), vehicle: saline 98 % of control | dose: 12.5 mg/kg/injection, schedule: Q03HX024 (ip), vehicle: saline 96 % of control | dose: 25.0 mg/kg/injection, schedule: Q01DX009 (ip), vehicle: saline 102 % of control | dose: 25.0 mg/kg/injection, schedule: Q03HX008 (ip), vehicle: saline 101 % of control | dose: 25.0 mg/kg/injection, schedule: Q03HX016 (ip), vehicle: saline 104 % of control | dose: 25.0 mg/kg/injection, schedule: Q03HX024 (ip), vehicle: saline 95 % of control | dose: 50.0 mg/kg/injection, schedule: Q01DX001 (ip), vehicle: saline 93 % of control | dose: 50.0 mg/kg/injection, schedule: Q01DX001 (oral), vehicle: saline 105 % of control | [1] 102 % of control | dose: 50.0 mg/kg/injection, schedule: Q01DX009 (oral), vehicle: saline 100 % of control | dose: 50.0 mg/kg/injection, schedule: Q03HX008 (ip), vehicle: saline 105 % of control | dose: 50.0 mg/kg/injection, schedule: Q03HX016 (ip), vehicle: saline 101 % of control | dose: 50.0 mg/kg/injection, schedule: Q03HX024 (ip), vehicle: saline 101 % of control | dose: 50.0 mg/kg/injection, schedule: Q04DX003 (ip), vehicle: saline 100 % of control | dose: 50.0 mg/kg/injection, schedule: Q08DX002 (ip), vehicle: saline 90 % of control | dose: 100.0 mg/kg/injection, schedule: Q01DX001 (ip), vehicle: saline 102 % of control | dose: 100.0 mg/kg/injection, schedule: Q01DX001 (oral), vehicle: saline 103 % of control | [2] 103 % of control | dose: 100.0 mg/kg/injection, schedule: Q01DX009 (oral), vehicle: saline 96 % of control | dose: 100.0 mg/kg/injection, schedule: Q01DX009 (sc), vehicle: steriod suspending solution 107 % of control | dose: 100.0 mg/kg/injection, schedule: Q03HX008 (ip), vehicle: saline 105 % of control | dose: 100.0 mg/kg/injection, schedule: Q03HX016 (ip), vehicle: saline 98 % of control | dose: 100.0 mg/kg/injection, schedule: Q03HX024 (ip), vehicle: saline 101 % of control | dose: 100.0 mg/kg/injection, schedule: Q04DX003 (ip), vehicle: saline 100 % of control | dose: 100.0 mg/kg/injection, schedule: Q08DX002 (ip), vehicle: saline 91 % of control | dose: 200.0 mg/kg/injection, schedule: Q01DX001 (ip), vehicle: saline 104 % of control | dose: 200.0 mg/kg/injection, schedule: Q01DX001 (oral), vehicle: saline 104 % of control | [3] 90 % of control | dose: 200.0 mg/kg/injection, schedule: Q01DX009 (oral), vehicle: saline 98 % of control | dose: 200.0 mg/kg/injection, schedule: Q01DX009 (sc), vehicle: steriod suspending solution 107 % of control | dose: 200.0 mg/kg/injection, schedule: Q04DX003 (ip), vehicle: saline 107 % of control | dose: 200.0 mg/kg/injection, schedule: Q08DX002 (ip), vehicle: saline 93 % of control | dose: 400.0 mg/kg/injection, schedule: Q01DX001 (ip), vehicle: saline 107 % of control | dose: 400.0 mg/kg/injection, schedule: Q01DX001 (oral), vehicle: saline 105 % of control | dose: 400.0 mg/kg/injection, schedule: Q01DX009 (ip), vehicle: saline 103 % of control | dose: 400.0 mg/kg/injection, schedule: Q01DX009 (oral), vehicle: saline 91 % of control | dose: 400.0 mg/kg/injection, schedule: Q01DX009 (sc), vehicle: steriod suspending solution 104 % of control | dose: 400.0 mg/kg/injection, schedule: Q04DX003 (ip), vehicle: saline 100 % of control | dose: 400.0 mg/kg/injection, schedule: Q08DX002 (ip), vehicle: saline 89 % of control | dose: 800.0 mg/kg/injection, schedule: Q01DX001 (ip), vehicle: saline 107 % of control | dose: 800.0 mg/kg/injection, schedule: Q01DX001 (oral), vehicle: saline 104 % of control | dose: 800.0 mg/kg/injection, schedule: Q01DX009 (oral), vehicle: saline 103 % of control | dose: 800.0 mg/kg/injection, schedule: Q01DX009 (sc), vehicle: steriod suspending solution 98 % of control | dose: 800.0 mg/kg/injection, schedule: Q04DX003 (ip), vehicle: saline 95 % of control | dose: 800.0 mg/kg/injection, schedule: Q08DX002 (ip), vehicle: saline 94 % of control

Nc1ncnc(N)c1NC(=O)c1cccc(OCc2ccccc2)c1
inactive: [4] 100 % of control | [5] 91 % of control | [6] 94 % of control

OCC1CC=CCC1 (centres undefined)
inactive: [4] 97 % of control | [5] 90 % of control | [6] 95 % of control

Clc1ccc(Br)c2c1CCC2
inactive: dose: 100.0 mg/kg/injection, schedule: Q04DX003 (ip), vehicle: acetone 101 % of control | dose: 200.0 mg/kg/injection, schedule: Q04DX003 (ip), vehicle: acetone 100 % of control

C=C(C)C1CCC2=CCCC(C)C2(C)C1 (centres undefined)
inactive: [1] 98 % of control | [2] 104 % of control | [3] 90 % of control

OC(c1ccccc1)(c1ccccc1)c1ccccc1C(O)(c1ccccc1)c1ccccc1
inactive: dose: 100.0 mg/kg/injection, schedule: Q01DX001 (ip), vehicle: Klucel (hydroxypropylcellulose) (HPC) 90 % of control | dose: 200.0 mg/kg/injection, schedule: Q01DX001 (ip), vehicle: Klucel (hydroxypropylcellulose) (HPC) 90 % of control

CC(=O)Nc1c(Br)cc2c(c1Br)Cc1cc(N(CCO)CCO)ccc1-2
inactive: dose: 50.0 mg/kg/injection, schedule: Q01DX001 (ip), vehicle: carboxymethylcellulose (CMC) 102 % of control | dose: 100.0 mg/kg/injection, schedule: Q01DX001 (ip), vehicle: carboxymethylcellulose (CMC) 102 % of control | dose: 200.0 mg/kg/injection, schedule: Q01DX001 (ip), vehicle: carboxymethylcellulose (CMC) 104 % of control | dose: 400.0 mg/kg/injection, schedule: Q01DX001 (ip), vehicle: carboxymethylcellulose (CMC) 98 % of control

Nc1ncnc2c1[nH]c(=S)n2C1OC(CO)C(O)C1O (centres undefined)
inactive: dose: 100.0 mg/kg/injection, schedule: Q04DX002 (ip), vehicle: saline with Tween-80 107 % of control | dose: 200.0 mg/kg/injection, schedule: Q04DX002 (ip), vehicle: saline with Tween-80 103 % of control | dose: 400.0 mg/kg/injection, schedule: Q04DX002 (ip), vehicle: saline with Tween-80 100 % of control

CCC(CO)Nc1nc2c(c(=O)n(C)c(=O)n2C)n1C (centres undefined)
inactive: dose: 12.5 mg/kg/injection, schedule: Q01DX005 (ip), vehicle: distilled water + Tween-80 101 % of control | dose: 25.0 mg/kg/injection, schedule: Q01DX005 (ip), vehicle: distilled water + Tween-80 100 % of control | dose: 50.0 mg/kg/injection, schedule: Q01DX005 (ip), vehicle: distilled water + Tween-80 101 % of control | dose: 100.0 mg/kg/injection, schedule: Q01DX005 (ip), vehicle: distilled water + Tween-80 94 % of control | dose: 200.0 mg/kg/injection, schedule: Q01DX005 (ip), vehicle: distilled water + Tween-80 101 % of control
